Experimental data reported in ChEMBL document CHEMBL4627305, “3,3-Difluoro-3,4,5,6-tetrahydropyridin-2-amines: Potent and permeable BACE-1 inhibitors” (Bioorg Med Chem Lett, 2020).

How the values were obtained:
Beta-secretase 1 [1] = biological target: T1, Beta-secretase 1 (Homo sapiens, UniProt P56817); assay: Inhibition of BACE1 (unknown origin)
Beta-secretase 1 [2] = biological target: T1, Beta-secretase 1; assay: Inhibition of BACE1 (unknown origin) assessed as reduction in Abeta42 level by cell based assay
Beta-secretase 2 = biological target: T2, Beta-secretase 2 (Homo sapiens, UniProt Q9Y5Z0); assay: Inhibition of BACE2 (unknown origin)
T2 sequence (Q9Y5Z0 whole entry): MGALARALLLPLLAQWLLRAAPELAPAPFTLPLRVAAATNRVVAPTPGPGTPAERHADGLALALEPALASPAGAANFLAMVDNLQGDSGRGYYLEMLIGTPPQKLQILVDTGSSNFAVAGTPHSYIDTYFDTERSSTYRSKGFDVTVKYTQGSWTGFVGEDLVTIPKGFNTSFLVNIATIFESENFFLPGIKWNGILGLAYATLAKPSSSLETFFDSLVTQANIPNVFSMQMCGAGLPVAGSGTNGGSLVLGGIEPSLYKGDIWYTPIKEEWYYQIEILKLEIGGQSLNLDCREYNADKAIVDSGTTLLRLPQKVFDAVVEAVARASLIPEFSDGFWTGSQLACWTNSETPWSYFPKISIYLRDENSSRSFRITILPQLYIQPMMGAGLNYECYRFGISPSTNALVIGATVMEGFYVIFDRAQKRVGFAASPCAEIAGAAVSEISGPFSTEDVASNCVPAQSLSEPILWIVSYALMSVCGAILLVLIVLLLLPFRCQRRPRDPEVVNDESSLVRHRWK

[3] = Dissociation constant, pKa of the compound; assay type: physicochemical
[4] = Metabolic stability in human liver microsomes assessed as intrinsic clearance; assay type: ADME, Microsome; settings: read-out: CLH
[5] = Metabolic stability in dog liver microsomes assessed as intrinsic clearance; assay type: ADME, Canis lupus familiaris, Microsome; settings: read-out: CLH
Homo sapiens = species: Homo sapiens; assay: Selectivity index, ratio of IC50 for BACE2 (unknown origin) to IC50 for BACE1 (unknown origin)
[6] = Efflux ratio of apparent permeability across basolateral to apical over apical to basolateral side in MDCK cells; assay type: ADME, cell-based, Canis lupus familiaris; settings: dog
Cytochrome P450 2D6 = Cytochrome P450 2D6 (Homo sapiens, UniProt P10635); assay: Inhibition of CYP2D6 (unknown origin); assay type: ADME
[7] = biological target: Voltage-gated inwardly rectifying potassium channel KCNH2 (Homo sapiens, UniProt Q12809); assay: Inhibition of human ERG
Voltage-gated inwardly rectifying potassium channel KCNH2, sequence (Q12809 whole entry): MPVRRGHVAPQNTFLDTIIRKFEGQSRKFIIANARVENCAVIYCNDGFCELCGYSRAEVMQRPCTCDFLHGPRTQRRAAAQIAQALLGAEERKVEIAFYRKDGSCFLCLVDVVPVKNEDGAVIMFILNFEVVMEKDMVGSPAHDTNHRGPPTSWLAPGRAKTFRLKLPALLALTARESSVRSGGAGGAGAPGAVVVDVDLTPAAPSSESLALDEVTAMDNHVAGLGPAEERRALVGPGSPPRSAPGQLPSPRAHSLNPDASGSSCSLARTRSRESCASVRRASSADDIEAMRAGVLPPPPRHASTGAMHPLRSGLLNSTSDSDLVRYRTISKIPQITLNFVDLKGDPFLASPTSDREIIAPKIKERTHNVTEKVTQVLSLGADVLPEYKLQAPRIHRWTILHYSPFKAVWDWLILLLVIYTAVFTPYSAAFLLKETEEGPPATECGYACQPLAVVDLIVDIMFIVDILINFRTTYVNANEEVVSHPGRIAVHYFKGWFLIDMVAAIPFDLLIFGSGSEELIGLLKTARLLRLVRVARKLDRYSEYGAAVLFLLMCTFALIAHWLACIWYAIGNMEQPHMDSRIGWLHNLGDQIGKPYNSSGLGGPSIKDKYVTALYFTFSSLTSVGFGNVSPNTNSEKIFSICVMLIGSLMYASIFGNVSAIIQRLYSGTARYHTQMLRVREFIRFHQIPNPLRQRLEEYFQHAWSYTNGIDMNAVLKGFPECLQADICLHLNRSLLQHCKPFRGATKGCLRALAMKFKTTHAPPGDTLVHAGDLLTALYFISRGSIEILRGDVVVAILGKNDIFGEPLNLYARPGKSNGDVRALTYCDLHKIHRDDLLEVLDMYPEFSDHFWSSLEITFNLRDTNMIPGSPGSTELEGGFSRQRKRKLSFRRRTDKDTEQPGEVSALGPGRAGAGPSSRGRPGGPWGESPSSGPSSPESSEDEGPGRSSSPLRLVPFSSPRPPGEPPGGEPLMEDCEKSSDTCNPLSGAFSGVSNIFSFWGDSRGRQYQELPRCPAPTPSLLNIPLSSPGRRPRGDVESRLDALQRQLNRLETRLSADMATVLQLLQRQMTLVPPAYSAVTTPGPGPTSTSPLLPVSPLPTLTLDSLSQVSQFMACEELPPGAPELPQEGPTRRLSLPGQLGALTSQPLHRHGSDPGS

T1 sequence (P56817 whole entry): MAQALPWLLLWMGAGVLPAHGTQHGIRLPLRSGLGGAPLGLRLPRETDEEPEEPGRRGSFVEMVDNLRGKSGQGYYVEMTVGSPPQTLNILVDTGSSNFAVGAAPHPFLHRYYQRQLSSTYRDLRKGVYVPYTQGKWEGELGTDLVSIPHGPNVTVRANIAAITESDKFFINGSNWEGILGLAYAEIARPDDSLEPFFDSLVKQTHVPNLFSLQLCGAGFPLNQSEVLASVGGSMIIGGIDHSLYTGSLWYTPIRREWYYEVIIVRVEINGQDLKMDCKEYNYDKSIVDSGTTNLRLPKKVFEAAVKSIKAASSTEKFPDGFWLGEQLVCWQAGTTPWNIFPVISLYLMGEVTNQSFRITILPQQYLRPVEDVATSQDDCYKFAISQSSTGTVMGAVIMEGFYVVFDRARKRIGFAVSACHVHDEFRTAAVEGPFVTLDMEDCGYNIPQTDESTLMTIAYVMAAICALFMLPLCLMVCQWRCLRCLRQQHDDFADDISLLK
Cytochrome P450 2D6, sequence (P10635 whole entry): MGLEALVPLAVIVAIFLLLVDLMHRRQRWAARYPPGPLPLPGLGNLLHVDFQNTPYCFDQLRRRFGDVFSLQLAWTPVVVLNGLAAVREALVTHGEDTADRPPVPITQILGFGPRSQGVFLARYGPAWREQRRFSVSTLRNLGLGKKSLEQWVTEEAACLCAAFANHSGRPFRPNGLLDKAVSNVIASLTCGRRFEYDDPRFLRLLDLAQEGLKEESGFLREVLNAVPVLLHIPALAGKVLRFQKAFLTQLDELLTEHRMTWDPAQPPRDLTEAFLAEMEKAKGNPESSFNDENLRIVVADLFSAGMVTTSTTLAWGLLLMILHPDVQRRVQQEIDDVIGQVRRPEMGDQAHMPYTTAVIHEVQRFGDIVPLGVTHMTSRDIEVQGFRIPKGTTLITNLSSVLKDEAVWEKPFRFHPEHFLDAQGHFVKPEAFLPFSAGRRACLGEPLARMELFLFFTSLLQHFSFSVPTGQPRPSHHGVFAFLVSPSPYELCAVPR

Compound | IC50 (Beta-secretase 1 [1]) [nM] | IC50 (Beta-secretase 1 [2]) [nM] | IC50 (Beta-secretase 2) [nM] | pKa [3] | microsomal CLint [4] [µL/min/mg] | microsomal CLint [5] [µL/min/mg] | Ratio IC50 (Homo sapiens) | efflux ratio [6] | IC50 (Cytochrome P450 2D6) [nM] | IC50 [7] [nM]
NC1=N[C@](CF)(c2cc(NC(=O)c3cnc(OCF)cn3)ccc2F)CCC1(F)F | 8.9 | 93.3 | 138 | 6.3 | < 7.7 | < 7.7 |  |  |  | 
NC1=N[C@@]2(c3cc(NC(=O)c4cnc(OCF)cn4)ccc3F)CCOC[C@H]2CC1(F)F (racemic) | 79.4 | 170 | 1070 | 6.7 | 35.3 | 11.8 | 13.5 | 8.4 | > 10000 | > 10000
C[C@@]1(c2cc(NC(=O)c3cnc(OCF)cn3)ccc2F)CCC(F)(F)C(N)=N1 | 11.5 | 16.2 | 126 | 7.6 | 10.1 | 10.2 | 11 | 2.1 | 1000 | > 10000

Continued, in another order:

IC50 (Beta-secretase 1 [1]) [nM] | IC50 (Beta-secretase 1 [2]) [nM] | IC50 (Beta-secretase 2) [nM] | pKa [3] | microsomal CLint [4] [µL/min/mg] | microsomal CLint [5] [µL/min/mg] | Ratio IC50 (Homo sapiens) | efflux ratio [6] | IC50 (Cytochrome P450 2D6) [nM] | Compound | IC50 [7] [nM]
3.5 | 7.1 | 10.2 | 6.6 | 46.2 | 15.5 | 3 | 4.7 | > 10000 | NC1=N[C@@]2(c3cc(NC(=O)c4cnc(OCF)cn4)ccc3F)COCC[C@H]2CC1(F)F (racemic) | > 10000
2.5 | 4.8 | 8.9 | 6.4 | 24.9 | < 7.7 | 3.6 | 12 | > 10000 | NC1=N[C@@]2(c3cc(NC(=O)c4cnc(OCF)cn4)ccc3F)CO[C@@H](CF)C[C@H]2CC1(F)F | > 10000
1.5 | 3.5 | 6.8 | 6.6 | 119 | 18.6 | 4.5 | 5 | > 10000 | C[C@H]1C[C@H]2CC(F)(F)C(N)=N[C@@]2(c2cc(NC(=O)c3cnc(OCF)cn3)ccc2F)CO1 | > 10000
